Data published in patent US20260226086A1, “COMPOUNDS AND COMPOSITIONS AS STAT3 DEGRADERS AND USES THEREOF” (REGENTS OF THE UNIVERSITY OF MICHIGAN, priority 2023, published 2026).
Where two headings read alike, the source gives them in different places.

Columns and labels:
Type in all cases: cell-based
[1] = target: T1, STAT3 (Homo sapiens, UniProt P40763); test: HiBiT assay, STAT3 degradation in STAT3-HiBiT KI HeLa cells; conditions: for DC50: read-out: STAT3 Degradation (HeLa 24 h HiBit) DC50
T1 construct: This cell line is a clone created by using CRISPR-Cas9 to fuse HiBiT to the 3′ end of STAT3 in HeLa cells; host or cells: STAT3-HiBiT KI HeLa cell line (CRISPR-Cas9 knock-in clone)
How it was run: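 HeLa cells with CRISPR knock-in of HiBiT at the STAT3 C-terminus, 20000 cells/well, treated with serial compound dilutions for 24 h at 37 °C, 5% CO2. Remaining STAT3 read by Nano-Glo HiBiT lytic luminescence versus untreated cells; IC50 from four-parameter nonlinear fit of triplicate means.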

[2] = test system: SU-DHL-1 cells; test: CellTiter-Glo 2.0 cell viability assay, SU-DHL-1; conditions: Homo sapiens, 96 h, 4 days
How it was run: (§1)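 1000 cells per well exposed to serially diluted compounds for 4 days at 37 °C, 5% CO2. Viability measured by CellTiter-Glo 2.0 luminescence versus untreated cells; IC50 from four-parameter nonlinear fit of triplicate means.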

[3] = test system: SUP-M2 cells; test: CellTiter-Glo 2.0 cell viability assay, SUP-M2; conditions: SUP-M2, 96 h, 4 days
How it was run: as §1

T1 sequence (P40763 whole entry): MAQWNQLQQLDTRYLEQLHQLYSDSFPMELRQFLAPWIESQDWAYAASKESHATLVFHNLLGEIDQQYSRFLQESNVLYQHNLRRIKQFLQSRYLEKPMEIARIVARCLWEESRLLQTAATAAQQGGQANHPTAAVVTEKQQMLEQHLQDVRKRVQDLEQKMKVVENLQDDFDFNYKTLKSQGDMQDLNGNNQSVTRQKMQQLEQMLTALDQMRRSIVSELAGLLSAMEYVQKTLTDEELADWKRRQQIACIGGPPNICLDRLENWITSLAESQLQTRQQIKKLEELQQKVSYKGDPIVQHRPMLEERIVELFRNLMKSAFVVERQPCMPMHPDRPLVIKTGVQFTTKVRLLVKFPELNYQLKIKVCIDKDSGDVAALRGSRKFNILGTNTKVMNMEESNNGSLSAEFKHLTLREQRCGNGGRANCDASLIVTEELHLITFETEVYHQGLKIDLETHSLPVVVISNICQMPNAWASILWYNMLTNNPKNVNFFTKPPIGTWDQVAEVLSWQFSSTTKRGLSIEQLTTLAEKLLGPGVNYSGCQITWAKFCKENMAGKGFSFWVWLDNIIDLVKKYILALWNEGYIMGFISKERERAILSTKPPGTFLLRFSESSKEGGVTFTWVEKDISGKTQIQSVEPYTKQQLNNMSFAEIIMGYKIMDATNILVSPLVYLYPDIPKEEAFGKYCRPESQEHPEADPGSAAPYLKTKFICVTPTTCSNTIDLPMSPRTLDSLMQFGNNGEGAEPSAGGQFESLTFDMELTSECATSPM

SMILES	DC50 ([1]; 24 h)	IC50 [2]	IC50 [3]	Dmax at 1 µM ([1]; 24 h)	DC50 [1]
Cc1ncsc1-c1ccc([C@H](C)NC(=O)[C@@H]2C[C@@H](O)CN2C(=O)[C@@H](n2cc(CCCC(=O)N3CC[C@H]4CC[C@@H](C(=O)N[C@@H](CCC(N)=O)C(=O)NC(c5ccccc5)c5ccccc5)N4C(=O)[C@@H](NC(=O)c4cc5cc(C(=O)P(=O)(O)O)ccc5[nH]4)C3)nn2)C(C)(C)C)cc1 [Compound 56, (2-(((5S,8S,10aR)-8-(((S)-5-amino-1-(benzhydrylamino)-1,5-dioxopentan-2-yl)carbamoyl)-3-(4-(1-((S)-1-((2S,4R)-4-hydroxy-2-(((S)-1-(4-(4-methylthiazol-5-yl)phenyl)ethyl)carbamoyl)pyrrolidin-1-yl)-3,3-dimethyl-1-oxobutan-2-yl)-1H-1,2,3-triazol-4-yl)butanoyl)-6-oxodecahydropyrrolo[1,2-a][1,5]diazocin-5-yl)carbamoyl)-1H-indole-5-carbonyl)phosphonic acid]	> 1000 nM	100 to 1000 nM	100 to 1000 nM	–	–
CCS(=O)(=O)c1ccc(CNC(=O)[C@H](CCC(N)=O)NC(=O)[C@@H]2CC[C@@H]3CCN(C(=O)CCCCc4cn([C@H](C(=O)N5C[C@H](O)C[C@H]5C(=O)N[C@@H](CN5CCOCC5)c5ccc(-c6scnc6C)cc5)C(C)(C)C)nn4)C[C@H](NC(=O)c4cc5cc(C(=O)P(=O)(O)O)ccc5[nH]4)C(=O)N32)cc1 [Compound 16, (2-(((5S,8S,10aR)-8-(((S)-5-amino-1-((4-(ethylsulfonyl)benzyl)amino)-1,5-dioxopentan-2-yl)carbamoyl)-3-(5-(1-((S)-1-((2S,4R)-4-hydroxy-2-(((R)-1-(4-(4-methylthiazol-5-yl)phenyl)-2-morpho-linoethyl)carbamoyl)pyrrolidin-1-yl)-3,3-dimethyl-1-oxobutan-2-yl)-1H-1,2,3-triazol-4-yl)pentanoyl)-6-oxodecahydropyrrolo[1,2-a][1,5]diazocin-5-yl)carbamoyl)-1H-indole-5-carbonyl)phosphonic acid]	10 to 100 nM	100 to 1000 nM	100 to 1000 nM	> 80%	–
Cc1ncsc1-c1ccc([C@H](C)NC(=O)[C@@H]2C[C@@H](O)CN2C(=O)[C@@H](n2cc(CCC(=O)N3CC[C@H]4CC[C@@H](C(=O)N[C@@H](CCC(N)=O)C(=O)NCc5cccc(Cl)c5)N4C(=O)[C@@H](NC(=O)c4cc5cc(C(=O)P(=O)(O)O)ccc5[nH]4)C3)nn2)C(C)(C)C)cc1 [Compound 8, (2-(((5S,8S,10aR)-8-(((S)-5-amino-1-((3-chlorobenzyl)amino)-1,5-dioxopentan-2-yl)carbamoyl)-3-(3-(1-((S)-1-((2S,4R)-4-hydroxy-2-(((S)-1-(4-(4-methylthiazol-5-yl)phenyl)ethyl)carbamoyl)pyrrolidin-1-yl)-3,3-dimethyl-1-oxobutan-2-yl)-1H-1,2,3-triazol-4-yl)propanoyl)-6-oxodecahydropyrrolo[1,2-a][1,5]diazocin-5-yl)carbamoyl)-1H-indole-5-carbonyl)phosphonic acid]	100 to 1000 nM	100 to 1000 nM	10 to 100 nM	> 80%	–
Cc1ncsc1-c1ccc([C@H](C)NC(=O)[C@@H]2C[C@@H](O)CN2C(=O)[C@@H](NC(=O)CC(=O)N2CC[C@H]3CC[C@@H](C(=O)N[C@@H](CCC(N)=O)C(=O)NC(c4ccccc4)c4ccccc4)N3C(=O)[C@@H](NC(=O)c3cc4cc(C(=O)P(=O)(O)O)ccc4[nH]3)C2)C(C)(C)C)cc1 [Compound 46, (2-(((5S,8S,10aR)-8-(((S)-5-amino-1-(benzhydrylamino)-1,5-dioxopentan-2-yl)carbamoyl)-3-(3-(((S)-1-((2S,4R)-4-hydroxy-2-(((S)-1-(4-(4-methylthiazol-5-yl)phenyl)ethyl)carbamoyl)pyrrolidin-1-yl)-3,3-dimethyl-1-oxobutan-2-yl)amino)-3-oxopropanoyl)-6-oxodecahydropyrrolo[1,2-a][1,5]diazocin-5-yl)carbamoyl)-1H-indole-5-carbonyl)phosphonic acid]	> 1000 nM	> 1000 nM	> 1000 nM	–	–
CCS(=O)(=O)c1ccc(CNC(=O)[C@H](CCC(N)=O)NC(=O)[C@@H]2CC[C@@H]3CCN(C(=O)CCCCc4cn([C@H](C(=O)N5C[C@H](O)C[C@H]5C(=O)N[C@@H](C)c5ccc(-c6scnc6C)cc5)C(C)(C)C)nn4)C[C@H](NC(=O)c4cc5cc(C(=O)P(=O)(O)O)ccc5[nH]4)C(=O)N32)cc1 [Compound 11, (2-(((5S,8S,10aR)-8-(((S)-5-amino-1-((4-(ethylsulfonyl)benzyl)amino)-1,5-dioxopentan-2-yl)carbamoyl)-3-(5-(1-((S)-1-((2S,4R)-4-hydroxy-2-(((S)-1-(4-(4-methylthiazol-5-yl)phenyl)ethyl)carbamoyl)pyrrolidin-1-yl)-3,3-dimethyl-1-oxobutan-2-yl)-1H-1,2,3-triazol-4-yl)pentanoyl)-6-oxodecahydropyrrolo[1,2-a][1,5]diazocin-5-yl)carbamoyl)-1H-indole-5-carbonyl)phosphonic acid]	< 10 nM	10 to 100 nM	< 10 nM	> 80%	–
Cc1ncsc1-c1ccc([C@H](C)NC(=O)[C@@H]2C[C@@H](O)CN2C(=O)[C@@H](NC(=O)CCCC(=O)N2CC[C@H]3CC[C@@H](C(=O)N[C@@H](CCC(N)=O)C(=O)NC(c4ccccc4)c4ccccc4)N3C(=O)[C@@H](NC(=O)c3cc4cc(C(=O)P(=O)(O)O)ccc4[nH]3)C2)C(C)(C)C)cc1 [Compound 48, (2-(((5S,8S,10aR)-8-(((S)-5-amino-1-(benzhydrylamino)-1,5-dioxopentan-2-yl)carbamoyl)-3-(5-(((S)-1-((2S,4R)-4-hydroxy-2-(((S)-1-(4-(4-methylthiazol-5-yl)phenyl)ethyl)carbamoyl)pyrrolidin-1-yl)-3,3-dimethyl-1-oxobutan-2-yl)amino)-5-oxopentanoyl)-6-oxodecahydropyrrolo[1,2-a][1,5]diazocin-5-yl)carbamoyl)-1H-indole-5-carbonyl)phosphonic acid]	10 to 100 nM	10 to 100 nM	10 to 100 nM	–	–
Cc1ncsc1-c1ccc([C@H](C)NC(=O)[C@@H]2C[C@@H](O)CN2C(=O)[C@@H](n2cc(CCCCCCC(=O)N3CC[C@H]4CC[C@@H](C(=O)N[C@@H](CCC(N)=O)C(=O)NC(c5ccccc5)c5ccccc5)N4C(=O)[C@@H](NC(=O)c4cc5cc(C(=O)P(=O)(O)O)ccc5[nH]4)C3)nn2)C(C)(C)C)cc1 [Compound 59, (2-(((5S,8S,10aR)-8-(((S)-5-amino-1-(benzhydrylamino)-1,5-dioxopentan-2-yl)carbamoyl)-3-(7-(1-((S)-1-((2S,4R)-4-hydroxy-2-(((S)-1-(4-(4-methylthiazol-5-yl)phenyl)ethyl)carbamoyl)pyrrolidin-1-yl)-3,3-dimethyl-1-oxobutan-2-yl)-1H-1,2,3-triazol-4-yl)heptanoyl)-6-oxodecahydropyrrolo[1,2-a][1,5]diazocin-5-yl)carbamoyl)-1H-indole-5-carbonyl)phosphonic acid]	–	> 1000 nM	> 1000 nM	–	> 1000 nM
Cc1ncsc1-c1ccc([C@H](C)NC(=O)[C@@H]2C[C@@H](O)CN2C(=O)[C@@H](n2cc(CCCC(=O)N3CC[C@H]4CC[C@@H](C(=O)N[C@@H](CCC(N)=O)C(=O)NCc5cccc(Cl)c5)N4C(=O)[C@@H](NC(=O)c4cc5cc(C(=O)P(=O)(O)O)ccc5[nH]4)C3)nn2)C(C)(C)C)cc1 [Compound 9, (2-(((5S,8S,10aR)-8-(((S)-5-amino-1-((3-chlorobenzyl)amino)-1,5-dioxopentan-2-yl)carbamoyl)-3-(4-(1-((S)-1-((2S,4R)-4-hydroxy-2-(((S)-1-(4-(4-methylthiazol-5-yl)phenyl)ethyl)carbamoyl)pyrrolidin-1-yl)-3,3-dimethyl-1-oxobutan-2-yl)-1H-1,2,3-triazol-4-yl)butanoyl)-6-oxodecahydropyrrolo[1,2-a][1,5]diazocin-5-yl)carbamoyl)-1H-indole-5-carbonyl)phosphonic acid]	10 to 100 nM	10 to 100 nM	10 to 100 nM	> 80%	–
Cc1ncsc1-c1ccc([C@H](C)NC(=O)[C@@H]2C[C@@H](O)CN2C(=O)[C@@H](n2cc(CCC(=O)N3CC[C@H]4CC[C@@H](C(=O)N[C@@H](CCC(N)=O)C(=O)NC(c5ccccc5)c5ccccc5)N4C(=O)[C@@H](NC(=O)c4cc5cc(C(=O)P(=O)(O)O)ccc5[nH]4)C3)nn2)C(C)(C)C)cc1 [Compound 55, (2-(((5S,8S,10aR)-8-(((S)-5-amino-1-(benzhydrylamino)-1,5-dioxopentan-2-yl)carbamoyl)-3-(3-(1-((S)-1-((2S,4R)-4-hydroxy-2-(((S)-1-(4-(4-methylthiazol-5-yl)phenyl)ethyl)carbamoyl)pyrrolidin-1-yl)-3,3-dimethyl-1-oxobutan-2-yl)-1H-1,2,3-triazol-4-yl)propanoyl)-6-oxodecahydropyrrolo[1,2-a][1,5]diazocin-5-yl)carbamoyl)-1H-indole-5-carbonyl)phosphonic acid]	> 1000 nM	> 1000 nM	> 1000 nM	–	–
